{
  "source": "paper PMC12311865",
  "about": "“In Vitro Evaluation of the Potential Interactions of Zearalenone-14-sulfate and Zearalenone-14-glucuronide with Human Cytochrome P450 Enzymes, Organic Anion Transporting Polypeptides, and ATP-Binding Cassette Multidrug Transporters” (ACS Omega, 2025)",
  "key": {"[1]": {"biological_target": "T1, CYP3A4 (Homo sapiens, UniProt P08684)", "T1 construct": "purchased Merck", "assay": "in vitro", "assay_type": "biochemical", "conditions": "testosterone 5 μM", "excerpt": "Testosterone and 6β-hydroxytestosterone were detected at 240 nm."}, "[2]": {"biological_target": "T2, OATP1B3 (Homo sapiens, UniProt Q9NPD5)", "T2 construct": "expressed in transfected cells; host or cells: A431", "T2 sequence (Q9NPD5 1-702)": "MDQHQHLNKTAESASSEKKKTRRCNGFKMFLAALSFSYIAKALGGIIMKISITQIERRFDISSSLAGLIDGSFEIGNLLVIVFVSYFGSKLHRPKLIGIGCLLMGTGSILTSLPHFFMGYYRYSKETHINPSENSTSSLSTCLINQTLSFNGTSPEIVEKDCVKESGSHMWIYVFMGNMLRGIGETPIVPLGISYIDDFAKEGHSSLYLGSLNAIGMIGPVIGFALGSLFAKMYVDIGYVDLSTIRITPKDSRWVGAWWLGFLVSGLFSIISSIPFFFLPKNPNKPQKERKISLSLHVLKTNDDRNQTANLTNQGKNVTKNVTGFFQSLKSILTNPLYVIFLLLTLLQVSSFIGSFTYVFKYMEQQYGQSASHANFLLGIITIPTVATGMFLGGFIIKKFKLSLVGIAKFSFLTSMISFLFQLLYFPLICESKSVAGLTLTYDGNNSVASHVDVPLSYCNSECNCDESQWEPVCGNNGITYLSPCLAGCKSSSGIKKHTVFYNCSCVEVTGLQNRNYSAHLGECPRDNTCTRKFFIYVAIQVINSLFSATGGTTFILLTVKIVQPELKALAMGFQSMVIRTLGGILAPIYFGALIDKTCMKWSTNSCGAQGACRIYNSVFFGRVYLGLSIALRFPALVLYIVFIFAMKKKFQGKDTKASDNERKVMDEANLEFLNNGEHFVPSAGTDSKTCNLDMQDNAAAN", "assay": "OATP1B3-mediated pyranine uptake in overexpressing A431 cells", "assay_type": "cell-based", "method": "The human epidermoid carcinoma cell (A431) overexpressing OATP1A2, OATP1B1, OATP1B3, or OATP2B1 transporters and their mock control cells were generated previously as described. , Cell culture was maintained in DMEM supplemented with 10% fetal bovine serum, 2 mM L-glutamine, 100 units/mL penicillin, and 100 μg/mL streptomycin at 37 °C and 5% CO2.\nThe inhibitory effects of mycotoxins (Z14S and Z14GA) were examined using indirect fluorescence assays, where pyranine and SR101 were used as fluorescent substrates. , A431 cells overexpressing OATP1A2, OATP1B1/3, or OATP2B1 and their mock-transfected controls were seeded at a density of 8 × 10^4 cells/well onto 96-well plates and incubated for 18–22 h prior to transport measurements. The next day, plated cells were washed three times with 200 μL of PBS (phosphate-buffered saline, pH 7.4) and preincubated with 50 μL of transport buffer (pH 5.5; 125 mM NaCl, 4.8 mM KCl, 1.2 mM CaCl2, 1.2 mM KH2PO4, 12 mM MgSO4, 25 mM MES, and 5.6 mM glucose) with or without increasing concentrations of the mycotoxins tested (0.001–20 μM) for 5 min at 37 °C. The transport inhibition measurements were initiated by adding 50 μL of transport buffer containing the proper fluorescent substrate SR101 (0.5 μM, OATP1A2) or pyranine (10 μM for OATP1B1 or 20 μM for OATP1B3 and OATP2B1). After 10 min (OATP1A2), 15 min (OATP1B1 and OATP2B1), or 30 min (OATP1B3) incubation, the transport was terminated by washing the cells three times with ice-cold PBS. […] Using an Enspire plate reader (PerkinElmer, Waltham, MA), the fluorescence was measured at excitation/emission wavelengths of 460/510 nm (pyranine) or 586/605 nm (SR101).\nOATP-mediated transport was obtained by subtracting the activity of the mock control cells from the activity of the OATP-expressing cells. The transport activity (%) of the OATPs was calculated by comparing the fluorescence signal obtained in the absence of the compounds tested (set to 100%)."}, "[3]": {"biological_target": "T3, human MRP2 (Homo sapiens, UniProt Q92887)", "T3 construct": "made in house; host or cells: Sf9 insect cells (baculovirus)", "T3 sequence (Q92887 whole entry)": "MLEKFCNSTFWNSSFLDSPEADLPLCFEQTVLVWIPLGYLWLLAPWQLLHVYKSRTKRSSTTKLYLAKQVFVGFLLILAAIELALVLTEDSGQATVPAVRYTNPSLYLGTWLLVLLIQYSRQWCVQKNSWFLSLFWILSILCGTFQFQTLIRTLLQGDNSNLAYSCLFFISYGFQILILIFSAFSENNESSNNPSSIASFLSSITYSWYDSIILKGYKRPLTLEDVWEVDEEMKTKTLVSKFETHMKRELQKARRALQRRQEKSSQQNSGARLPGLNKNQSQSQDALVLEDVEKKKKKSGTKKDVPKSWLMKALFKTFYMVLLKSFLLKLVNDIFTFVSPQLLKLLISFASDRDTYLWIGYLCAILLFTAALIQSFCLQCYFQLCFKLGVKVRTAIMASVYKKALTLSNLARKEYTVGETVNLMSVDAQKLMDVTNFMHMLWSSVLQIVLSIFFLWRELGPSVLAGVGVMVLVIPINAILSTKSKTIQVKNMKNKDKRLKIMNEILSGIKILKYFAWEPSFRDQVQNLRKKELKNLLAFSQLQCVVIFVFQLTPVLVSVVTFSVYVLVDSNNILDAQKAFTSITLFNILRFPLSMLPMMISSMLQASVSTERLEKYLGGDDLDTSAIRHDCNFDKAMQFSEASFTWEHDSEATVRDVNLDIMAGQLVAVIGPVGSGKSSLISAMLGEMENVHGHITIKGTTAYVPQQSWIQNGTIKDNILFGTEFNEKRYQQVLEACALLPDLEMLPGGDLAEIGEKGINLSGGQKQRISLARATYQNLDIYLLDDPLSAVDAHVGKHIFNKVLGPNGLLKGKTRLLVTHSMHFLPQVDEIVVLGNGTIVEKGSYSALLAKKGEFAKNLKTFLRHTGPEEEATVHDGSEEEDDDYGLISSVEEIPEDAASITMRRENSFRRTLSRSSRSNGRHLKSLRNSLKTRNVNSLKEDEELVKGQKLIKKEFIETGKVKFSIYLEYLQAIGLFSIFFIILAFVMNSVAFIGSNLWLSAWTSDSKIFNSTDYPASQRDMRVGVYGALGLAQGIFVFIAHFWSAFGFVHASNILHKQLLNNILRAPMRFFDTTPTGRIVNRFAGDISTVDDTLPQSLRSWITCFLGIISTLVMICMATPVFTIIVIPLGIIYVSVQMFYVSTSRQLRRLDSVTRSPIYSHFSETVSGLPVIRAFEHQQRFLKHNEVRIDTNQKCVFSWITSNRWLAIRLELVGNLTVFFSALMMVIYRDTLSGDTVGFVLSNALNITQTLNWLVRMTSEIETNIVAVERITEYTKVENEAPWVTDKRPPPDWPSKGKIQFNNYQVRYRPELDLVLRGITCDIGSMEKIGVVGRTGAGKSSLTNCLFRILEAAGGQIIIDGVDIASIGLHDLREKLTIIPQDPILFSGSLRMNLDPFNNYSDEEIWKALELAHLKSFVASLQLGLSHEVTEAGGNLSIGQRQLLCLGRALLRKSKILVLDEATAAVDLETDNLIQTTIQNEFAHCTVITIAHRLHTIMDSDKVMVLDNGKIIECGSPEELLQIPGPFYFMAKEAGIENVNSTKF", "assay": "biochemical", "assay_type": "biochemical", "conditions": "CDCF 5 μM", "method": "(§1) Experiments were performed in insect membrane vesicles, as described previously. Briefly, human MDR1, BCRP, and MRP2 were expressed in Sf9 insect cells by baculoviruses. On the third day of infection, cells were collected and membrane vesicles were obtained by mechanical disruption and differential centrifugation. To get full activity for BCRP, the cholesterol levels of the vesicles were adjusted to the level of mammalian membranes. Vesicles were stored at −80 °C, and the total protein content of the preparations was measured by the Lowry method (used as a reference for the quantity). […] A 100 μL volume of fluorescence stabilizer was added to the samples (DMSO for LY, 0.1 M H2SO4 for NMQ, and 0.1 M NaOH for CDCF). Fluorescence of samples was measured by plate readers (Victor X3 and Enspire PerkinElmer; Waltham, MA) at appropriate wavelengths (filters in the Victor X3 reader were 405/535 nm for LY and 492/635 nm for CDCF; while in the Enspire reader, NMQ was measured at 360/430 nm excitation/emission wavelengths). ABC-related transport was calculated by subtracting passive uptake measured without Mg-ATP from values measured in the presence of Mg-ATP."}, "[4]": {"biological_target": "T4, MDR1 (Homo sapiens, UniProt P08183)", "T4 construct": "made in house; host or cells: Sf9 insect cells (baculovirus)", "T4 sequence (P08183 whole entry)": "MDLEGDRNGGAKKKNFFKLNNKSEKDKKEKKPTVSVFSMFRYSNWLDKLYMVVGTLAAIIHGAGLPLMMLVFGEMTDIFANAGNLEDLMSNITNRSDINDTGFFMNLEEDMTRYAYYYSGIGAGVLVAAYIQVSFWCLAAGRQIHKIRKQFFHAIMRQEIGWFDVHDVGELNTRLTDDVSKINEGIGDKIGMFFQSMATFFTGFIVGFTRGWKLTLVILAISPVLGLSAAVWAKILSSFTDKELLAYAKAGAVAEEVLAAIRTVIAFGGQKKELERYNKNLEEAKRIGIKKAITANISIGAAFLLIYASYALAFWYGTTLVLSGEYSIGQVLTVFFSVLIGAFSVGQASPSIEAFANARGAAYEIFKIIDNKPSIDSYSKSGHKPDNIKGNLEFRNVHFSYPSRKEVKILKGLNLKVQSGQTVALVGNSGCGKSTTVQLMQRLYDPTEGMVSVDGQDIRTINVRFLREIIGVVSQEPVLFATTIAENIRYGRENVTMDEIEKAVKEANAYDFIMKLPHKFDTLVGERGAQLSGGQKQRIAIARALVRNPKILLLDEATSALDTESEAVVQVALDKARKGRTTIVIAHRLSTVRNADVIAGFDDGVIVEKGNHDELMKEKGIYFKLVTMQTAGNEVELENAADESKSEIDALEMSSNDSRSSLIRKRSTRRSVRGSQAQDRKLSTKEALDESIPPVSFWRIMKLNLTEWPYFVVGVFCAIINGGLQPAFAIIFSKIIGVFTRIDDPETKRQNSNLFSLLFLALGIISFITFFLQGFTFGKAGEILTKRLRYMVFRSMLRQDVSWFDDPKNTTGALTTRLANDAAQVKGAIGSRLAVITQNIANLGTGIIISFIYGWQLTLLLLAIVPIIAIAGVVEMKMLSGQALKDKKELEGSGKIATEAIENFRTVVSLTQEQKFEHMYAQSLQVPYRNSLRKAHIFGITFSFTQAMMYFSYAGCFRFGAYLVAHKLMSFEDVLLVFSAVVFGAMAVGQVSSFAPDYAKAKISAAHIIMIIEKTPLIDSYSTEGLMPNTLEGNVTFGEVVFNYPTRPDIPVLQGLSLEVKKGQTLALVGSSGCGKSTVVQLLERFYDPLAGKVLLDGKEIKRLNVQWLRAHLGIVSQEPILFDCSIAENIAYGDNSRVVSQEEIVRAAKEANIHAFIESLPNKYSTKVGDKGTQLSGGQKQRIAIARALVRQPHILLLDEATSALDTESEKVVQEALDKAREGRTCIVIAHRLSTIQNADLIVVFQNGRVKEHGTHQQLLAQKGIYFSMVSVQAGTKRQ", "assay": "MDR1-mediated NMQ vesicular transport (Sf9 membrane vesicles)", "assay_type": "biochemical", "conditions": "0–50 μM; NMQ 5 μM", "method": "as §1"}},
  "note": "Like-named read-outs stand apart in the source and are kept apart here.",
  "data": [
    {"smiles": "C[C@H]1CCCC(=O)CCC/C=C/c2cc(O[C@@H]3O[C@H](C(=O)O)[C@@H](O)[C@H](O)[C@H]3O)cc(O)c2C(=O)O1", "note": "[Z14GA, Zearalenone-14-glucuronide]", "values": [
      {"measurement": "inhibition of CYP3A4 (decrease in metabolite formation)", "setting": "[1]; each 20 μM, 180 min", "value": "no effects"},
      {"measurement": "IC50", "setting": "[2]; pyranine 20 μM, 30 min, A431 cells, read-out: IC50 for OATP1B3", "value": "> 20", "unit": "µM"},
      {"measurement": "IC50", "setting": "[3]; Sf9 membrane vesicles, read-out: IC50 for MRP2-mediated CDCF transport", "value": "> 10", "unit": "µM"}
    ]},
    {"smiles": "C[C@H]1CCCC(=O)CCC/C=C/c2cc(OS(=O)(=O)O)cc(O)c2C(=O)O1", "note": "[Z14S, zearalenone-14-sulfate]", "values": [
      {"measurement": "inhibition at 180 min, 20 μM", "setting": "[1]; human, pH 7.5, each 20 μM, read-out: inhibition of CYP3A4 (decrease in metabolite formation)", "value": "~45", "unit": "%"},
      {"measurement": "IC50", "setting": "[2]", "value": 2.3, "unit": "µM"},
      {"measurement": "decrease in OATP1B3 transport activity", "setting": "[2]; 20 μM, pyranine substrate, A431 cells", "value": "80–100%"},
      {"measurement": "effect on MRP2-dependent transport of CDCF", "setting": "[3]; 0–50 μM", "value": "weak inhibitory effect"}
    ]},
    {"smiles": "C[C@H]1CCCC(=O)CCC/C=C/c2cc(O)cc(O)c2C(=O)O1", "note": "[ZEN, Zearalenone]", "values": [
      {"measurement": "effect on MDR1-driven NMQ transport", "setting": "[4]", "value": "inhibition only at 50 μM concentration"}
    ]}
  ]
}
